{"source": "patent US20190365675A1", "about": "“COMPOSITIONS FOR THE PREVENTION AND/OR TREATMENT OF ALCOHOL USE DISORDERS” (SERVICIO ANDALUZ DE SALUD, priority 2016, published 2019)", "type_in_all_cases": "in vivo, Wistar rats", "key": {"control animals": {"tested_on": "control animals", "assay": "OEA time curve in control animals", "details": "time curve 3 h, 6 h, 24 h; some trends at 3 h (TLR4, p65)", "procedure": "A time curve (n=18) was also established with OEA (3 h, 6 h, and 24 h) to rule out any effect in the control animals."}, "MCP-1": {"tested_on": "MCP-1", "assay": "MCP-1 levels (ELISA) in frontal cortex after ethanol intoxication", "details": "OEA pre-treatment", "procedure": "The animals were treated with intragastric (i.g.) ethanol 3 times a day using an i.g. cannula (16G needle, Fisher Scientific, Waltham, Mass., USA), following a protocol based on a slightly modified standard 4-day alcohol intoxication pattern (Bernier et al., 2002a, b) (FIG. 1A). The ethanol doses were administered every 8 h for a total time of 4 days. The rats treated with ethanol received an initial loading dose of 5 g/kg of ethanol in a 30% solution (w/v) and then a maximum maintenance dose of 3 g/kg, which were determined based on blood ethanol levels (BEL). This repeated standard alcohol intoxication paradigm kept BEL intoxication relatively constant in a range of sedation/ataxia (190 to 430 mg/dl, Table 3), according to the 6-point alcohol intoxication behavior scale (Majchrowicz, 1975). The mean dose of ethanol/rat/day (days 1-4) was 7.06 g/kg, similar to other studies (Obernier et al., 2002a, b). […] The levels of soluble HMGB1, TNF-α, IL-1β and MCP-1 were determined by means of a commercially available enzyme-linked immunosorbent assay kit (ELISA) (Elabscience Biotechnology Co., Ltd., China, for HMGB-1; RayBiotech®, GA, USA, for TNF-α, IL-1β, and MCP-1). The nuclear/cytosol HMGB1 fraction was determined by means of Western blot analysis."}, "caspase-3": {"tested_on": "caspase-3", "assay": "Caspase-3 mRNA, protein and activity (fluorometric assay) in frontal cortex after ethanol intoxication", "details": "OEA pre-treatment", "procedure": "The animals were treated with intragastric (i.g.) ethanol 3 times a day using an i.g. cannula (16G needle, Fisher Scientific, Waltham, Mass., USA), following a protocol based on a slightly modified standard 4-day alcohol intoxication pattern (Bernier et al., 2002a, b) (FIG. 1A). The ethanol doses were administered every 8 h for a total time of 4 days. The rats treated with ethanol received an initial loading dose of 5 g/kg of ethanol in a 30% solution (w/v) and then a maximum maintenance dose of 3 g/kg, which were determined based on blood ethanol levels (BEL). This repeated standard alcohol intoxication paradigm kept BEL intoxication relatively constant in a range of sedation/ataxia (190 to 430 mg/dl, Table 3), according to the 6-point alcohol intoxication behavior scale (Majchrowicz, 1975). The mean dose of ethanol/rat/day (days 1-4) was 7.06 g/kg, similar to other studies (Obernier et al., 2002a, b). OEA (5 mg/kg, i.p., except initial dose of 10 mg/kg i.p.; synthesized as described in Giuffrida et al., 2000) was dissolved in the vehicle (5% Tween-80 in saline solution) and injected 10 minutes before each of the administrations of ethanol by an intragastric gavage. The anti-inflammatory activity of OEA at 10 mg/kg per intraperitoneal route in the frontal cortex before the injection of LPS (Sayd et al., 2014) was previously referred to. In this study, OEA is repeatedly injected as a pre-treatment before each administration of ethanol. The doses of OEA chosen in this study are in the range of doses tested as being pharmacologically active (5-20 mg/kg, i.p.) (Bilbao et al., 2015). […] The autoradiograph was quantified by densitometry (NIH ImageJ® software, National Biosciences, Lincoln, Nebr. USA) and expressed as optical density (OD). […] The quantitative changes in mRNA levels were estimated by means of RT-PCR, carried out in the presence of the SYBR green primer using a 20-L reaction in a Rotor-Gene (Corbett Research®, Mortlake, NSW, Australia). […] Caspase-3 activity was determined using a fluorometric assay kit (Abnova®, Taiwan) according to the manufacturer's protocol. […]"}}, "data": [{"smiles": "CCCCCCCC/C=C\\CCCCCCCC(=O)NCCO", "note": "[OEA, oleoylethanolamide]", "values": [{"measurement": "Effect of OEA on the parameters in control animals", "setting": "control animals", "result": "did not significantly modify"}, {"measurement": "Ethanol-induced increase in MCP-1 levels", "setting": "MCP-1", "result": "prevented"}, {"measurement": "Alcohol-induced overexpression of caspase-3 mRNA", "setting": "caspase-3", "result": "unable to prevent"}, {"measurement": "Ethanol-induced overexpression of caspase-3 protein", "setting": "caspase-3", "result": "prevented"}, {"measurement": "Ethanol-induced increase in activity of caspase-3", "setting": "caspase-3; fluorometric assay", "result": "reverted"}]}]}
